Assay results published in PubChem BioAssay (NCI).
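Grown in 96-well plates, cells were treated for 48 hours with each compound at five concentrations. Insufficient inhibition: endpoint recorded as highest concentration tested. GI50: concentration for 50% inhibition of growth. TGI marks complete inhibition of growth.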

Assays:
Assay in all cases: DTP human tumour cell line panel, 48 h
NCI-H23 lung = tested on: NCI-H23 lung
T-47D breast = tested on: T-47D breast
RPMI-8226 leukemia = tested on: RPMI-8226 leukemia
IGROV1 ovarian = tested on: IGROV1 ovarian
SR leukemia = tested on: SR leukemia
NCI/ADR-RES ovarian = tested on: NCI/ADR-RES ovarian
SK-MEL-2 melanoma = tested on: SK-MEL-2 melanoma
SF-295 CNS = tested on: SF-295 CNS
HL-60(TB) leukemia = tested on: HL-60(TB) leukemia
SNB-19 CNS = tested on: SNB-19 CNS
K-562 leukemia = tested on: K-562 leukemia
CAKI-1 renal = tested on: CAKI-1 renal
HCC-2998 colon = tested on: HCC-2998 colon
OVCAR-8 ovarian = tested on: OVCAR-8 ovarian
HOP-92 NSCLC = tested on: HOP-92 NSCLC
TK-10 renal = tested on: TK-10 renal
EKVX NSCLC = tested on: EKVX NSCLC
MCF7 breast = tested on: MCF7 breast
UACC-62 melanoma = tested on: UACC-62 melanoma
SW-620 colon = tested on: SW-620 colon
SK-OV-3 ovarian = tested on: SK-OV-3 ovarian
A498 renal = tested on: A498 renal
NCI-H460 lung = tested on: NCI-H460 lung
A549 NSCLC = tested on: A549 NSCLC
MOLT-4 leukemia = tested on: MOLT-4 leukemia
HCT-15 colon = tested on: HCT-15 colon
MDA-MB-231 breast = tested on: MDA-MB-231 breast
SK-MEL-5 melanoma = tested on: SK-MEL-5 melanoma
DU-145 prostate = tested on: DU-145 prostate
ACHN renal = tested on: ACHN renal
786-0 renal = tested on: 786-0 renal
OVCAR-4 ovarian = tested on: OVCAR-4 ovarian
NCI-H226 lung = tested on: NCI-H226 lung
BT-549 breast = tested on: BT-549 breast
U251 CNS = tested on: U251 CNS
SF-268 CNS = tested on: SF-268 CNS
SF-539 CNS = tested on: SF-539 CNS
SN12C renal = tested on: SN12C renal
OVCAR-3 ovarian = tested on: OVCAR-3 ovarian
CCRF-CEM leukemia = tested on: CCRF-CEM leukemia
HT29 colon = tested on: HT29 colon
UO-31 renal = tested on: UO-31 renal
HCT-116 colon = tested on: HCT-116 colon
COLO 205 colon = tested on: COLO 205 colon
MALME-3M melanoma = tested on: MALME-3M melanoma
SNB-75 CNS = tested on: SNB-75 CNS
SK-MEL-28 melanoma = tested on: SK-MEL-28 melanoma
KM12 colon = tested on: KM12 colon
NCI-H522 lung = tested on: NCI-H522 lung
OVCAR-5 ovarian = tested on: OVCAR-5 ovarian
LOX IMVI melanoma = tested on: LOX IMVI melanoma
HS 578T breast = tested on: HS 578T breast
HOP-62 NSCLC = tested on: HOP-62 NSCLC
UACC-257 melanoma = tested on: UACC-257 melanoma
PC-3 prostate = tested on: PC-3 prostate
MDA-MB-435 = tested on: MDA-MB-435
M14 melanoma = tested on: M14 melanoma

With `COc1ccc(/C=C(/C(=O)N2CCCC2)c2cc(OC)c(OC)c(OC)c2)cc1N` the GI50 (NCI-H23 lung) was 4.61 µM, the TGI (NCI-H23 lung) was > 100 µM and the GI50 (T-47D breast) was 3.91 µM. The TGI (T-47D breast) was > 100 µM, the GI50 (RPMI-8226 leukemia) was 4.05 µM and the TGI (RPMI-8226 leukemia) was > 100 µM. The GI50 (IGROV1 ovarian) was 3.93 µM, the TGI (IGROV1 ovarian) was > 100 µM and the GI50 (SR leukemia) was 719 nM. The TGI (SR leukemia) was > 100 µM, the GI50 (NCI/ADR-RES ovarian) was 4.21 µM and the TGI (NCI/ADR-RES ovarian) was 63.9 µM. The GI50 (SK-MEL-2 melanoma) was 4.72 µM, the TGI (SK-MEL-2 melanoma) was > 100 µM and the GI50 (SF-295 CNS) was 1110 nM. The TGI (SF-295 CNS) was > 100 µM, the GI50 (HL-60(TB) leukemia) was 2070 nM and the TGI (HL-60(TB) leukemia) was 7.65 µM. The GI50 (SNB-19 CNS) was 2870 nM, the TGI (SNB-19 CNS) was > 100 µM and the GI50 (K-562 leukemia) was 926 nM. The TGI (K-562 leukemia) was > 100 µM, the GI50 (CAKI-1 renal) was 2350 nM and the TGI (CAKI-1 renal) was > 100 µM. The GI50 (HCC-2998 colon) was 6.76 µM, the TGI (HCC-2998 colon) was > 100 µM and the GI50 (OVCAR-8 ovarian) was 8.92 µM. The TGI (OVCAR-8 ovarian) was > 100 µM, the GI50 (HOP-92 NSCLC) was 9.92 µM and the TGI (HOP-92 NSCLC) was > 100 µM. For the same compound, the GI50 (TK-10 renal) was 11.1 µM, the TGI (TK-10 renal) was > 100 µM and the GI50 (EKVX NSCLC) was 4.63 µM. The TGI (EKVX NSCLC) was > 100 µM, the GI50 (MCF7 breast) was 921 nM and the TGI (MCF7 breast) was > 100 µM. The GI50 (UACC-62 melanoma) was 1030 nM, the TGI (UACC-62 melanoma) was > 100 µM and the GI50 (SW-620 colon) was 2480 nM. For the same compound, the TGI (SW-620 colon) was > 100 µM, the GI50 (SK-OV-3 ovarian) was 2780 nM and the TGI (SK-OV-3 ovarian) was > 100 µM. The GI50 (A498 renal) was 1260 nM, the TGI (A498 renal) was > 100 µM and the GI50 (NCI-H460 lung) was 2960 nM. For the same compound, the TGI (NCI-H460 lung) was > 100 µM, the GI50 (A549 NSCLC) was 4.14 µM and the TGI (A549 NSCLC) was > 100 µM. The GI50 (MOLT-4 leukemia) was 4.74 µM, the TGI (MOLT-4 leukemia) was > 100 µM and the GI50 (HCT-15 colon) was 2280 nM. For the same compound, the TGI (HCT-15 colon) was > 100 µM, the GI50 (MDA-MB-231 breast) was 5.75 µM and the TGI (MDA-MB-231 breast) was > 100 µM. For the same compound, the GI50 (SK-MEL-5 melanoma) was 2510 nM, the TGI (SK-MEL-5 melanoma) was > 100 µM and the GI50 (DU-145 prostate) was 2650 nM. For the same compound, the TGI (DU-145 prostate) was > 100 µM, the GI50 (ACHN renal) was 5.73 µM and the TGI (ACHN renal) was > 100 µM. For the same compound, the GI50 (786-0 renal) was 2700 nM, the TGI (786-0 renal) was > 100 µM and the GI50 (OVCAR-4 ovarian) was 28.2 µM. For the same compound, the TGI (OVCAR-4 ovarian) was > 100 µM, the GI50 (NCI-H226 lung) was 4.44 µM and the TGI (NCI-H226 lung) was > 100 µM. The GI50 (BT-549 breast) was 6.52 µM, the TGI (BT-549 breast) was 57.8 µM and the GI50 (U251 CNS) was 4.18 µM. The TGI (U251 CNS) was > 100 µM, the GI50 (SF-268 CNS) was 5.44 µM and the TGI (SF-268 CNS) was > 100 µM. The GI50 (SF-539 CNS) was 1900 nM, the TGI (SF-539 CNS) was 6.75 µM and the GI50 (SN12C renal) was 4.86 µM. For the same compound, the TGI (SN12C renal) was > 100 µM, the GI50 (OVCAR-3 ovarian) was 992 nM and the TGI (OVCAR-3 ovarian) was 6.34 µM. The GI50 (CCRF-CEM leukemia) was 3.19 µM, the TGI (CCRF-CEM leukemia) was > 100 µM and the GI50 (HT29 colon) was 2300 nM. The TGI (HT29 colon) was > 100 µM, the GI50 (UO-31 renal) was 6.87 µM and the TGI (UO-31 renal) was > 100 µM. The GI50 (HCT-116 colon) was 1080 nM, the TGI (HCT-116 colon) was > 100 µM and the GI50 (COLO 205 colon) was 3.06 µM. The TGI (COLO 205 colon) was 11 µM, the GI50 (MALME-3M melanoma) was 4.25 µM and the TGI (MALME-3M melanoma) was > 100 µM. The GI50 (SNB-75 CNS) was 2180 nM, the TGI (SNB-75 CNS) was > 100 µM and the GI50 (SK-MEL-28 melanoma) was 5.68 µM. The TGI (SK-MEL-28 melanoma) was > 100 µM, the GI50 (KM12 colon) was 1550 nM and the TGI (KM12 colon) was > 100 µM. For the same compound, the GI50 (NCI-H522 lung) was 2340 nM, the TGI (NCI-H522 lung) was > 100 µM and the GI50 (OVCAR-5 ovarian) was 7.63 µM. The TGI (OVCAR-5 ovarian) was > 100 µM, the GI50 (LOX IMVI melanoma) was 3.77 µM and the TGI (LOX IMVI melanoma) was > 100 µM. For the same compound, the GI50 (HS 578T breast) was 2410 nM, the TGI (HS 578T breast) was > 100 µM and the GI50 (HOP-62 NSCLC) was 4.07 µM. The TGI (HOP-62 NSCLC) was > 100 µM, the GI50 (UACC-257 melanoma) was > 100 µM and the TGI (UACC-257 melanoma) was > 100 µM. For the same compound, the GI50 (PC-3 prostate) was 2100 nM and the TGI (PC-3 prostate) was > 100 µM.

`c1ccc2c(c1)CCc1c-2n(CCN2CCCCC2)c2ccccc12` showed a TGI (NCI-H23 lung) of 32.1 µM, a TGI (T-47D breast) of 44.5 µM and a TGI (RPMI-8226 leukemia) of 40.3 µM. The TGI (IGROV1 ovarian) was 27.3 µM, the TGI (SR leukemia) was 32.3 µM and the TGI (NCI/ADR-RES ovarian) was 33.1 µM. The TGI (SK-MEL-2 melanoma) was 30.2 µM, the TGI (SF-295 CNS) was 30.8 µM and the TGI (SNB-19 CNS) was 94.5 µM. The TGI (K-562 leukemia) was 30.9 µM, the TGI (CAKI-1 renal) was 52.3 µM and the TGI (HCC-2998 colon) was 26.4 µM. It also gave a TGI (OVCAR-8 ovarian) of 32 µM, a TGI (HOP-92 NSCLC) of 35 µM and a TGI (TK-10 renal) of 35.9 µM. It also gave a TGI (EKVX NSCLC) of 37.9 µM, a TGI (MCF7 breast) of 30.9 µM and a TGI (UACC-62 melanoma) of 29.1 µM. The TGI (SW-620 colon) was 50.1 µM, the TGI (SK-OV-3 ovarian) was 49.7 µM and the TGI (NCI-H460 lung) was 29.7 µM. For the same compound, the TGI (A549 NSCLC) was 43.7 µM, the TGI (MOLT-4 leukemia) was 44.8 µM and the TGI (HCT-15 colon) was 22.9 µM. The TGI (MDA-MB-231 breast) was 28 µM, the TGI (SK-MEL-5 melanoma) was 12.9 µM and the TGI (DU-145 prostate) was > 100 µM. It also gave a TGI (MDA-MB-435) of 74.4 µM, a TGI (ACHN renal) of 39.3 µM and a TGI (786-0 renal) of 33 µM. It also gave a TGI (OVCAR-4 ovarian) of 59.4 µM, a TGI (NCI-H226 lung) of 25.1 µM and a TGI (BT-549 breast) of 42.1 µM. The TGI (U251 CNS) was 30.3 µM, the TGI (SF-268 CNS) was 49.5 µM and the TGI (M14 melanoma) was 29.7 µM. For the same compound, the TGI (SF-539 CNS) was 26.6 µM, the TGI (SN12C renal) was 36.9 µM and the TGI (OVCAR-3 ovarian) was 31.1 µM. For the same compound, the TGI (CCRF-CEM leukemia) was > 100 µM, the TGI (HT29 colon) was 22.8 µM and the TGI (UO-31 renal) was 23.7 µM. For the same compound, the TGI (HCT-116 colon) was 25.5 µM, the TGI (COLO 205 colon) was 26.2 µM and the TGI (MALME-3M melanoma) was 40.3 µM. It also gave a TGI (SNB-75 CNS) of 49.1 µM, a TGI (SK-MEL-28 melanoma) of 50.9 µM and a TGI (KM12 colon) of 32 µM. It also gave a TGI (NCI-H522 lung) of 27.1 µM, a TGI (OVCAR-5 ovarian) of 30.2 µM and a TGI (LOX IMVI melanoma) of 29.6 µM. For the same compound, the TGI (HS 578T breast) was 35.4 µM, the TGI (HOP-62 NSCLC) was 30.1 µM and the TGI (UACC-257 melanoma) was 32.5 µM. The TGI (PC-3 prostate) was 27.1 µM.
